Assay results as given in ChEMBL document CHEMBL1140426, “First structure-activity relationship study on dopamine D3 receptor agents with N-[4-(4-arylpiperazin-1-yl)butyl]arylcarboxamide structure” (J Med Chem, 2005).
Values belong to the compound of their own block, whether it stands above or below them.

Assays:
[1] = target: T1, D(3) dopamine receptor (Homo sapiens, UniProt P35462)
Description: Intrinsic activity against dopamine receptor D3 by Eu-GTP binding assay

[2] = target: T1, D(3) dopamine receptor; experiment: biochemical
Description: Displacement of [3H]spiroperidol from cloned human dopamine receptor D3 in CHO cell membrane

T1 sequence (P35462 whole entry): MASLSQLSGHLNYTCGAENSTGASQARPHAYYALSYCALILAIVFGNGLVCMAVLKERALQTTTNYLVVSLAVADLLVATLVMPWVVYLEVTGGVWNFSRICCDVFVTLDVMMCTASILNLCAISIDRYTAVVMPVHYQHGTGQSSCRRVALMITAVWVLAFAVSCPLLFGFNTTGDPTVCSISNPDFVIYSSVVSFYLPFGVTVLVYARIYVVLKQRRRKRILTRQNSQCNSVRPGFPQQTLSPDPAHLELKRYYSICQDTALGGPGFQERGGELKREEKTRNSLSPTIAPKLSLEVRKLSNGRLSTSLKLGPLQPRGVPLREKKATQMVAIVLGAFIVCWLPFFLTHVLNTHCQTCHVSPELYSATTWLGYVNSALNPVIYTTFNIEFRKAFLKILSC

Ki [2]: 0.3 nM
Structure (SMILES): COc1ccccc1N1CCN(CCCCNC(=O)c2ccc(-c3ccccc3)cc2)CC1

EC50 [1]: 209 nM
Ki [2]: 11.9 nM
Structure (SMILES): O=C(NCCCCN1CCN(c2cccc(Cl)c2Cl)CC1)c1ccccc1

Ki [2]: 32.6 nM
Structure (SMILES): COc1ccccc1N1CCN(CCCCNC(=O)c2cccc3ccccc23)CC1

Ki [2]: 1.98 nM
Structure (SMILES): O=C(NCCCCN1CCN(c2cccc(Cl)c2Cl)CC1)c1ccc(-c2ccccc2)cc1

More lines, now with the values behind:

Structure (SMILES): COc1ccccc1N1CCN(CCCCNC(=O)c2ccc3c(c2)Cc2ccccc2-3)CC1
EC50 [1]: 49 nM
Ki [2]: 0.52 nM

Structure (SMILES): O=C(NCCCCN1CCN(c2cccc(Cl)c2Cl)CC1)c1ccc2ccccc2c1
Ki [2]: 7.9 nM

Structure (SMILES): O=C(NCCCCN1CCN(c2cccc(Cl)c2Cl)CC1)c1cccc2ccccc12
EC50 [1]: 60.3 nM
Ki [2]: 6.9 nM

Structure (SMILES): O=C(NCCCCN1CCN(c2cccc(Cl)c2Cl)CC1)[C@H]1CC[C@@H](c2ccccc2)CC1
EC50 [1]: 631 nM
Ki [2]: 10.6 nM

Structure (SMILES): COc1ccccc1N1CCN(CCCCNC(=O)[C@H]2CC[C@@H](c3ccccc3)CC2)CC1
EC50 [1]: 1820 nM
Ki [2]: 20.6 nM

Structure (SMILES): O=C(NCCCCN1CCN(c2cccc(Cl)c2Cl)CC1)[C@H]1CC[C@H](c2ccccc2)CC1
Ki [2]: 22.8 nM

Structure (SMILES): COc1ccccc1N1CCN(CCCCNC(=O)[C@H]2CC[C@H](c3ccccc3)CC2)CC1
Ki [2]: 3.4 nM
